How the values were obtained:
Type in all cases: cell-based
E. coli BL21 = assay: MIC against Gram-negative bacteria: E. coli BL21; conditions: 5×10^5 CFU/mL
Outline: (§1)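 Two-fold serial dilutions of each purified human EGF domain protein, three replicate wells per level, were combined with bacteria at a final 5×10^5 CFU/mL in LB. Cultures were shaken at 175 rpm, 37° C. The MIC was taken as the minimum concentration preventing growth.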

Citrobacter diversus = assay: MIC against Gram-negative bacteria: Citrobacter diversus; conditions: 5×10^5 CFU/mL
Outline: as §1

Proteus vulgaris = assay: MIC against Gram-negative bacteria: Proteus vulgaris; conditions: 5×10^5 CFU/mL
Outline: as §1

Pseudomonas aeruginosa = assay: MIC against Gram-negative bacteria: Pseudomonas aeruginosa; conditions: 5×10^5 CFU/mL
Outline: as §1

Klebsiella pneumonia = assay: MIC against Gram-negative bacteria: Klebsiella pneumonia; conditions: 5×10^5 CFU/mL
Outline: as §1

E. coli DH5α = assay: Antibacterial activity: MIC and growth curve against E. coli DH5α in 96-well plate; conditions: minimal inhibitory concentration against E. coli DH5α; 96-well plate, 5×10^5 CFU/mL, 37° C., judged after 8 h
Outline: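 MIC taken as lowest protein level with no bacterial growth, tracked by A600 every 30 min during 37 °C, 175 rpm culture. Two-fold protein series 50-12.5 μg/mL final, triplicate wells, against 5×10^5 CFU/mL of LB-washed mid-log cells.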

Moraxella catarrhalis = assay: MIC against Gram-negative bacteria: Moraxella catarrhalis; conditions: 5×10^5 CFU/mL
Outline: as §1

Proteus mirabilis = assay: MIC against Gram-negative bacteria: Proteus mirabilis; conditions: 5×10^5 CFU/mL
Outline: as §1

Enterobacter cloacae = assay: MIC against Gram-negative bacteria: Enterobacter cloacae; conditions: 5×10^5 CFU/mL
Outline: as §1

Serratia marcescens = assay: MIC against Gram-negative bacteria: Serratia marcescens; conditions: 5×10^5 CFU/mL
Outline: as §1

Aeromonas hydrophila = assay: MIC against Gram-negative bacteria: Aeromonas hydrophila; conditions: 5×10^5 CFU/mL
Outline: as §1

[1] = 10 h cultivation at 37° C., two-fold serial dilution

PRT694 (DVDECRRVPPPCAPGRCENSPGSFRCVCGPGFRAGPRAAECL; listed as Homo sapiens)
MIC E. coli BL21 (E. coli BL21; 96-well plate, 37° C., 10 h): 25 µg/mL | MIC C. diversus (Citrobacter diversus; 96-well plate, 37° C., 10 h): 12.5 µg/mL | MIC P. vulgaris (Proteus vulgaris; 96-well plate, 37° C., 10 h): 12.5 µg/mL | MIC P. aeruginosa (Pseudomonas aeruginosa; 96-well plate, 37° C., 10 h): 50 µg/mL | MIC K. pneumonia (Klebsiella pneumonia; 96-well plate, 37° C., 10 h): 25 µg/mL | MIC (E. coli DH5α): 50 µg/mL | MIC M. catarrhalis (Moraxella catarrhalis; 96-well plate, 37° C., 10 h): 25 µg/mL | MIC P. mirabilis (Proteus mirabilis; 96-well plate, 37° C., 10 h): 50 µg/mL | MIC E. cloacae (Enterobacter cloacae; 96-well plate, 37° C., 10 h): 50 µg/mL | MIC S. marcescens (Serratia marcescens; 96-well plate, 37° C., 10 h): 50 µg/mL | MIC A. hydrophila (Aeromonas hydrophila; 96-well plate, 37° C., 10 h): 25 µg/mL

PRT88 (HRMDQQCPRGWWGSPTCGPCNCDVHKGFDPNCN; listed as Homo sapiens)
MIC (μg/mL) E. coli BL21 (E. coli BL21; E. coli BL21, 96-well plate, 37° C., 10 h): 12.5 µg/mL | MIC (μg/mL) C. diversus (Citrobacter diversus; Citrobacter diversus, 96-well plate, 37° C., 10 h): 12.5 µg/mL | MIC (μg/mL) P. vulgaris (Proteus vulgaris; Proteus vulgaris, 96-well plate, 37° C., 10 h): 25 µg/mL | MIC (μg/mL) P. aeruginosa (Pseudomonas aeruginosa; Pseudomonas aeruginosa, 96-well plate, 37° C., 10 h): 50 µg/mL | MIC (μg/mL) K. pneumonia (Klebsiella pneumonia; Klebsiella pneumonia, 96-well plate, 37° C., 10 h): 100 µg/mL | MIC (E. coli DH5α): 25 µg/mL | MIC (μg/mL) M. catarrhalis (Moraxella catarrhalis; Moraxella catarrhalis, 96-well plate, 37° C., 10 h): 12.5 µg/mL | MIC (μg/mL) P. mirabilis (Proteus mirabilis; Proteus mirabilis, 96-well plate, 37° C., 10 h): 50 µg/mL | MIC (μg/mL) E. cloacae (Enterobacter cloacae; Enterobacter cloacae, 96-well plate, 37° C., 10 h): 12.5 µg/mL | MIC (μg/mL) S. marcescens (Serratia marcescens; Serratia marcescens, 96-well plate, 37° C., 10 h): 12.5 µg/mL | MIC (μg/mL) A. hydrophila (Aeromonas hydrophila; Aeromonas hydrophila, 96-well plate, 37° C., 10 h): 12.5 µg/mL

PRT592 (CDCDFRGTEGPGCDKASGRCLCRPGLTGPRCDQCQRGYCNRYPVCVA; listed as Homo sapiens)
MIC against E. coli BL21 (E. coli BL21; 96-well plate, 37° C., 10 h): 12.5 µg/mL | MIC against C. diversus (Citrobacter diversus; 96-well plate, 37° C., 10 h): 50 µg/mL | MIC against P. vulgaris (Proteus vulgaris; 96-well plate, 37° C., 10 h): 25 µg/mL | MIC against P. aeruginosa (Pseudomonas aeruginosa; 96-well plate, 37° C., 10 h): 50 µg/mL | MIC against K. pneumonia (Klebsiella pneumonia; 96-well plate, 37° C., 10 h): 12.5 µg/mL | MIC (E. coli DH5α): 50 µg/mL | MIC against M. catarrhalis (Moraxella catarrhalis; 96-well plate, 37° C., 10 h): 100 µg/mL | MIC against P. mirabilis (Proteus mirabilis; 96-well plate, 37° C., 10 h): 50 µg/mL | MIC against E. cloacae (Enterobacter cloacae; 96-well plate, 37° C., 10 h): 50 µg/mL | MIC against S. marcescens (Serratia marcescens; 96-well plate, 37° C., 10 h): 12.5 µg/mL | MIC against A. hydrophila (Aeromonas hydrophila; 96-well plate, 37° C., 10 h): 12.5 µg/mL

PRT1069 (VTNPCDRKKCEWLCLLSPSGPVCTCPNGKRLDNGTCV; listed as Homo sapiens)
MIC E. coli BL21 (E. coli BL21; [1]): 50 µg/mL | MIC C. diversus (Citrobacter diversus; [1]): 50 µg/mL | MIC P. vulgaris (Proteus vulgaris; [1]): 25 µg/mL | MIC P. aeruginosa (Pseudomonas aeruginosa; [1]): 12.5 µg/mL | MIC K. pneumonia (Klebsiella pneumonia; [1]): 25 µg/mL | MIC (E. coli DH5α): 12.5 µg/mL | MIC M. catarrhalis (Moraxella catarrhalis; [1]): 25 µg/mL | MIC P. mirabilis (Proteus mirabilis; [1]): 12.5 µg/mL | MIC E. cloacae (Enterobacter cloacae; [1]): 50 µg/mL | MIC S. marcescens (Serratia marcescens; [1]): 25 µg/mL | MIC A. hydrophila (Aeromonas hydrophila; [1]): 12.5 µg/mL

PRT1131 (RMPGCQHGTCHQPWQCICHSGWAGKFCD; listed as Homo sapiens)
MIC E. coli BL21 (E. coli BL21; [1]): 12.5 µg/mL | MIC C. diversus (Citrobacter diversus; [1]): 12.5 µg/mL | MIC P. vulgaris (Proteus vulgaris; [1]): 50 µg/mL | MIC P. aeruginosa (Pseudomonas aeruginosa; [1]): 50 µg/mL | MIC K. pneumonia (Klebsiella pneumonia; [1]): 12.5 µg/mL | MIC (E. coli DH5α): 50 µg/mL | MIC M. catarrhalis (Moraxella catarrhalis; [1]): 50 µg/mL | MIC P. mirabilis (Proteus mirabilis; [1]): 12.5 µg/mL | MIC E. cloacae (Enterobacter cloacae; [1]): 50 µg/mL | MIC S. marcescens (Serratia marcescens; [1]): 12.5 µg/mL | MIC A. hydrophila (Aeromonas hydrophila; [1]): 25 µg/mL

PRT542 (CRCDIGGALGQSCEPRTGVCRC; listed as Homo sapiens)
MIC against E. coli BL21 (E. coli BL21; 96-well plate, 37° C., 10 h): 12.5 µg/mL | MIC against C. diversus (Citrobacter diversus; 96-well plate, 37° C., 10 h): 50 µg/mL | MIC against P. vulgaris (Proteus vulgaris; 96-well plate, 37° C., 10 h): 12.5 µg/mL | MIC against P. aeruginosa (Pseudomonas aeruginosa; 96-well plate, 37° C., 10 h): 25 µg/mL | MIC against K. pneumonia (Klebsiella pneumonia; 96-well plate, 37° C., 10 h): 50 µg/mL | MIC (E. coli DH5α): 25 µg/mL | MIC against M. catarrhalis (Moraxella catarrhalis; 96-well plate, 37° C., 10 h): 12.5 µg/mL | MIC against P. mirabilis (Proteus mirabilis; 96-well plate, 37° C., 10 h): 50 µg/mL | MIC against E. cloacae (Enterobacter cloacae; 96-well plate, 37° C., 10 h): 25 µg/mL | MIC against S. marcescens (Serratia marcescens; 96-well plate, 37° C., 10 h): 50 µg/mL | MIC against A. hydrophila (Aeromonas hydrophila; 96-well plate, 37° C., 10 h): 12.5 µg/mL

PRT1399 (ARVQCPDQCSGHGTYLPDTGLCSCDPNWMGPDCS; listed as Homo sapiens)
MIC against E. coli BL21 (E. coli BL21; E. coli BL21, 10 h cultivation at 37° C.): 12.5 µg/mL | MIC against C. diversus (Citrobacter diversus; Citrobacter diversus, 10 h cultivation at 37° C.): 25 µg/mL | MIC against P. vulgaris (Proteus vulgaris; Proteus vulgaris, 10 h cultivation at 37° C.): 12.5 µg/mL | MIC against P. aeruginosa (Pseudomonas aeruginosa; Pseudomonas aeruginosa, 10 h cultivation at 37° C.): 12.5 µg/mL | MIC against K. pneumonia (Klebsiella pneumonia; Klebsiella pneumonia, 10 h cultivation at 37° C.): 12.5 µg/mL | MIC (E. coli DH5α): 12.5 µg/mL | MIC against M. catarrhalis (Moraxella catarrhalis; Moraxella catarrhalis, 10 h cultivation at 37° C.): 12.5 µg/mL | MIC against P. mirabilis (Proteus mirabilis; Proteus mirabilis, 10 h cultivation at 37° C.): 25 µg/mL | MIC against E. cloacae (Enterobacter cloacae; Enterobacter cloacae, 10 h cultivation at 37° C.): 25 µg/mL | MIC against S. marcescens (Serratia marcescens; Serratia marcescens, 10 h cultivation at 37° C.): 25 µg/mL | MIC against A. hydrophila (Aeromonas hydrophila; Aeromonas hydrophila, 10 h cultivation at 37° C.): 12.5 µg/mL
